Measured values reported in US10968190B2, “Processes for preparing oxathiazin-like compounds” (GEISTLICH PHARMA AG, priority 2014, dated 2021).
In brackets after ≈: the same amount, converted by molar mass. Read-outs that look alike come from different tables or passages of the source.

Legend:
[1] = Portnow et al., Clin Cancer Res 15, 7092-7098, 2009; cited from earlier work
[2] = test system: cancer stem cells (CSC) derived from four glioblastoma patients; test: Cytotoxicity in cancer stem cells from glioblastoma patients; format: cell-based, human
Procedure: Tissue samples from high grade gliomas WHO grade IV from newly diagnosed patients (medium age of 54±10 years) were minced mechanically, digested enzymatically and the dissociated cells were filtered. The isolated tumor cells were cultured as bulk cells. Cancer Stem Cells (CSCs) were isolated by the formation of neurospheres under neurosphere conditions (using neurobasal medium) from the murine SMA 560 glioma cell line or from freshly isolated human glioblastoma cells.
The number of remaining adherent cells were stained (crystal violet or Alamar Blue) and quantified by absorbance measurements (540 nm). Cell survival was expressed as the percentage of cells surviving relative to the number of cells surviving in untreated control cultures. The results are given as % killing rate or EC50 as the dose required for half-maximal cytotoxicity. Results
CSCs were isolated from glioblastoma tissue resected from four patients. […].

[3] = test system: human glioblastoma bulk cells; settings: Rodak et al., J. Neurosurg., 102, 1055-68, 2005; cited from earlier work
[4] = test system: multicellular pancreatic tumor (Panc Tul or BxPC-3) spheroids; test: Pancreatic stem cell-like multicellular spheroid toxicity assay; format: cell-based; settings: taurolidine 500 μM, compound 2250 1000 μM, 48 hours
Text: Multicellular spheroids are composed of tumor cells growing in a 3-dimensional structure stimulating the growth, micro-environmental conditions and stem cell-like characteristics of real tumors. The multicellular tumor spheroid (MCTS) model compensates for many of the deficiencies seen in monolayer cultures. Spheroids on the scale of 200-500 μm develop chemical gradients of oxygen, nutrients, and catabolites, while having morphological and functional features similar to tumors. Therefore, assays utilizing the MCTS model allow for the assessment of drug penetration and are more predictive of in vivo success compared with monolayer cultures. MCTS assays are a tumor model system of intermediate complexity between standard monolayer and tumors in vivo.
Pancreatic tumor cells (Panc Tu-1, BxPC-3, Mia Paca-2, ASPC1) and pancreatic primary tumor cells (Bo80) were seeded in ultra-low adhesion plates in special stem cell media.
Pancreatic tumor cells (ASPC1, Mia Paca-2, Panc Tul, BxPC-3) and pancreatic primary tumor cells (Bo80) were raised in monolayer culture before seeding in ultra low adhesion plates under conditions of special stem cell media to form multicellular spheroids and passed through a cell strainer to exclude aggregates. […]

tumor stem cells = test: Killing of tumor stem cells in tissue culture in vitro; format: cell-based
MiaPaca2 tumor = test: MiaPaca2 subcutaneous tumor model in nude mice; format: in vivo, nude mice (NMRI-Foxn1 nu/nu); settings: 500 mg/kg i.p. on alternating days
[5] = Half-life in human fresh blood in vitro by GC; format: in vitro ADME
[6] = test system: pancreatic primary tumors (Bo 73); test: Xenograft model of pancreatic primary tumors Bo 73; format: in vivo; settings: Bo 73, observed for 15 days; differences not statistically relevant
Text: (§1) However, the differences in tumor volumes were not statistically relevant, likely due to the short duration of the study and the slow growth rate of the tumors.

[7] = test system: human glioma cell line LN-229; test: Cytotoxicity assay in LN-229 cells (crystal violet); format: cell-based; settings: for OD (absorbance at 540 nm; high values = high cell viability): 24 h; for EC50: Homo sapiens, LN-229, 24 h
Procedure: Cell lines: The human glioma cell line LN-229 was used as described previously (Rodak et al. 2005) as well as the human colon adenocarcinoma cell line SW480.
Cytotoxicity assay: Dissociated LN-229 cells were seeded into 96-well plates at a density of 10^4 cells per well in 100 μl of culture medium. […] Triplicate cultures were prepared for each sample. After 24 h of incubation at […], the remaining adherent viable cells were stained using crystal violet as described (Rodack et al. 2005). Cell viability was determined by measuring the absorbancy at 540 nm. The results are expressed as killing rate given by the difference between 100% of cells and percentage of cells surviving. EC50 values correspond to the concentration inducing 50% cell death.

[8] = test system: murine SMA560 glioma cancer stem cells (CSC); settings: mouse SMA 560 CSCs vs bulk cells
Text: The mouse SMA560 glioma cell line was used to provide tumor bulk cells and CSCs. […] Mouse CSCs were generated from the SMA560 glioma cell line and cultured for 7 days.

PancTu I tumor = test: PancTu I subcutaneous tumor model in nude mice; format: in vivo, nude mice (NMRI-Foxn1 nu/nu); settings: 500 mg/kg i.p. on alternating days
[9] = test system: pancreatic primary tumors (Bo 70); test: Xenograft model of pancreatic primary tumors Bo 70; format: in vivo; settings: Bo 70, observed for 23 days
Text: as §1

[10] = Toxicity in mice during the tumor study; settings: 500 mg/kg i.p. on alternating days
Procedure: 1×10^7 tumor cells (PancTu-I and MiaPaca 2) were injected subcutaneously into the flank.
Tumors were grown to a size of 200 mm^3 before the treatment was started. Mice were treated on alternating days with 500 mg/kg*body weight (BW).

[11] = Water solubility and isotonicity; format: physicochemical
Text: In certain embodiments, no PVP necessary to increase the solubility. For example, a 3.2% solution 2250 is isotonic. This is an unexpected advantage over taurolidine.

[12] = test system: MRSA lines 188, 189, 193, 194 and 195; test: Punch plate tests against MRSA; format: cell-based
Escherichia coli = test: Antibacterial activity against Escherichia coli; format: cell-based
[13] = test system: tumor cell lines AsPC-1, BxPC-3 and HCT-116; test: Inhibition of cell viability in tumor cell lines; format: cell-based; settings: read-out: Half-maximal inhibition of cell viability
Text: These effects are similar to those observed in glioma cell line LN-229. The induction of cell death was due to apoptosis and necrosis (most likely necroptosis). […] Thus, there is a redox-directed mechanism of action.

[14] = test system: pancreas tumor cells (AsPC-1, BxPC-3 and HCT-116); test: Growth inhibition of pancreas tumor cells; format: cell-based; settings: read-out: half-maximal concentration of growth inhibition
Procedure: The growth of pancreas tumor cells (AsPC-1, BxPC-3 and HCT-116) was inhibited by compound 2250 with a half-maximal concentration of 300 μM, which is considerably lower than the concentration needed to elicit cytotoxicity.

[15] = test system: cancers identified herein; test: Administration to patients having cancers (Example 5); format: in vivo; settings: Example 5, present tense
Procedure: Each of these compounds is administered with Vitamin D3, a derivative, metabolite or analog thereof and the combination is found to increase the anti-tumor effects of the compounds.

Staphylococcus aureus = test: Antibacterial activity against Staphylococcus aureus; format: cell-based

SMILES: Cn1nnc2c(C(N)=O)ncn2c1=O [temozolamide]
- peak plasma levels measured in patients [1]: 13.7 µg/mL
- Cytotoxicity EC50 (μg/ml) 24 h ([2]; CSC GBM #3, 24 h): 84.4 µg/mL
- EC50 ([2]; CSC GBM #3, 24 h, read-out: Cytotoxicity EC50 24 h): 435 µM
- Cytotoxicity EC50 (μg/ml) 24 h ([2]; CSC GBM #4, 24 h): 97 µg/mL
- EC50 ([2]; CSC GBM #4, 24 h, read-out: Cytotoxicity EC50 24 h): 500 µM
- Cytotoxicity EC50 (μg/ml) 24 h ([2]; CSC GBM #5, 24 h): 48.5 µg/mL
- EC50 ([2]; CSC GBM #5, 24 h, read-out: Cytotoxicity EC50 24 h): 250 µM
- Cytotoxicity EC50 (μg/ml) 24 h ([2]; CSC GBM #6, 24 h): 44 µg/mL
- EC50 ([2]; CSC GBM #6, 24 h, read-out: Cytotoxicity EC50 24 h): 230 µM
- Cytotoxicity EC50, Mean ± SD ([2]; mean of CSCs from four glioblastoma patients, 24 h): 68.5 ± 26 µg/mL

SMILES: O=S1(=O)CCN(CN2CCS(=O)(=O)NC2)CN1 [taurolidine]
- EC50 [3]: ~50 µg/mL (≈ 176 µM)
- effect on pancreatic stem cell like multicellular spheroid cultures [4]: antineoplastic effect
- concentration effective at killing tumor stem cells (tumor stem cells): 0.01 µg/mL
- decrease of MiaPaca2 tumor volume compared to control (MiaPaca2 tumor): about 2 fold
- half-life ([5]; same test, human blood): ~30 min
- relative tumor volume compared to control [6]: slightly reduced relative tumor volume compared to control
- OD (absorbance at 540 nm; high values = high cell viability) ([7]; 4 μg/ml): 1.530
- OD (absorbance at 540 nm; high values = high cell viability) ([7]; 8 μg/ml): 1.478
- OD (absorbance at 540 nm; high values = high cell viability) ([7]; 15.5 μg/ml): 1.434
- OD (absorbance at 540 nm; high values = high cell viability) ([7]; 31 μg/ml): 1.132
- OD (absorbance at 540 nm; high values = high cell viability) ([7]; 62.5 μg/ml): 0.317
- OD (absorbance at 540 nm; high values = high cell viability) ([7]; 250 μg/ml): 0.165
- OD (absorbance at 540 nm; high values = high cell viability) ([7]; 500 μg/ml): 0.098
- OD (absorbance at 540 nm; high values = high cell viability) ([7]; 1000 μg/ml): 0.109
- EC50 ([7]; LN-229 cells, 24 h incubation, read-out: EC50 (concentration inducing 50% cell death)): 45 µg/mL (≈ 158 µM)
- EC50 (concentration inducing 50% cell death) ([7]; LN-229 cells, 24 h incubation): 50 µg/mL (≈ 176 µM)
- sensitivity of CSCs versus corresponding glioma bulk cells, based on EC50 [8]: about 3 fold
- decrease of PancTu I tumor volume compared to control (PancTu I tumor): about 3 fold
- tumor volume compared to control [9]: significantly reduce tumor volume compared to control
- toxic effect on the mice during the study [10]: no toxic effect
- EC50 ([2]; Homo sapiens, 24 h, read-out: Cytotoxicity EC50 (μg/ml) 24 h, CSC GBM #4, 24 h): 12.5 µg/mL
- EC50 ([2]; Homo sapiens, 24 h, read-out: Cytotoxicity EC50 (μg/ml) 24 h, CSC GBM #5, 24 h): 14 µg/mL
- EC50 ([2]; Homo sapiens, 24 h, read-out: Cytotoxicity EC50, Mean ± SD, mean of CSCs from four glioblastoma patients, 24 h): 13 ± 2 µg/mL
- EC50 ([2]; Homo sapiens, GBM3, 24 h, read-out: Cytotoxicity EC50 (μg/ml) 24 h, CSC GBM #3, 24 h): 15 µg/mL
- EC50 ([2]; Homo sapiens, GBM6, 24 h, read-out: Cytotoxicity EC50 (μg/ml) 24 h, CSC GBM #6, 24 h): 10 µg/mL

SMILES: O=S1(=O)CCOCN1 [compound 2250, Tetrahydro1,4,5-oxathiazin-4-dioxide]
- effect on pancreatic stem cell like multicellular spheroid cultures [4]: antineoplastic effect
- solubility in water [11]: very soluble in water
- concentration of isotonic solution ([11]; no PVP): 3.2%
- activity in punch plate tests [12]: highly active
- decrease of MiaPaca2 tumor volume compared to control (MiaPaca2 tumor): over 3 fold
- antibacterial activity (Escherichia coli): very high level of antibacterial activity
- concentration in human fresh blood ([5]; After 1 hour, 37° C.): 50.6 ppm
- concentration in human fresh blood ([5]; After 2 hours, 37° C.): 47.6 ppm
- concentration in human fresh blood ([5]; After 20 hours, 37° C.): 38.6-39.0 ppm
- concentration in human fresh blood ([5]; Baseline Value, 37° C.): 49.0 ppm
- half-life at 49 ppm ([5]; human fresh blood, 37° C., in vitro): > 1440 min
- relative tumor volume compared to control [6]: further reduced relative tumor volume compared to control
- IC50 [13]: 750 to 1000 µM
- IC50 [14]: 300 µM
- OD (absorbance at 540 nm; high values = high cell viability) ([7]; 4 μg/ml): 1.477
- OD (absorbance at 540 nm; high values = high cell viability) ([7]; 8 μg/ml): 1.527
- OD (absorbance at 540 nm; high values = high cell viability) ([7]; 15.5 μg/ml): 1.482
- OD (absorbance at 540 nm; high values = high cell viability) ([7]; 31 μg/ml): 1.482
- OD (absorbance at 540 nm; high values = high cell viability) ([7]; 62.5 μg/ml): 0.372
- OD (absorbance at 540 nm; high values = high cell viability) ([7]; 250 μg/ml): 0.120
- OD (absorbance at 540 nm; high values = high cell viability) ([7]; 500 μg/ml): 0.141
- OD (absorbance at 540 nm; high values = high cell viability) ([7]; 1000 μg/ml): 0.189
- EC50 ([7]; read-out: EC50 (concentration inducing 50% cell death), LN-229 cells, 24 h incubation): 45 µg/mL (≈ 328 µM)
- EC50 ([7]; read-out: half-maximal concentration of inducing cell death EC50): 50 µg/mL (≈ 365 µM)
- decrease of PancTu I tumor volume compared to control (PancTu I tumor): about 2 fold
- effectiveness in treating cancers in patients [15]: effective in treating such cancers
- safety for use in patients [15]: safe for use in patients
- antibacterial activity relative to Taurultam (Staphylococcus aureus; Staph. aureus): about double as high as Taurultam
- antibacterial activity (Staphylococcus aureus; Staphylococcus aureus): very high level of antibacterial activity
- tumor volume compared to control [9]: significantly reduce tumor volume compared to control
- toxic effect on the mice during the study [10]: no toxic effect
